Source: patent US9738591B2, “Antimicrobial compounds” (priority 2009, dated 2017)
“And” between values parts separate entries of the source, which are not always exact repeats. Identical values can stand only once. Like-named read-outs stand apart in the source and are kept apart here.

Key:
[1] = tested on: S. typhimurium TA98, TA100 and TA1535; experiment: Ames Test for mutagenic activity, no metabolic activation; settings: for Number of colonies: duplicate plates
[2] = tested on: Listeria monocytogenes NCTC 7973; experiment: Disk diffusion; settings: 10 mg/ml, 20 μl
[3] = tested on: Proteus mirabilis NCTC 10975; experiment: Disk diffusion; settings: 10 mg/ml, 20 μl; repeat; value printed with '?'
[4] = tested on: Bacillus subtilis ATCC 6633; experiment: Disk diffusion; settings: 10 mg/ml, 20 μl
S. aureus NCTC 6571 = experiment: Time-kill experiments; type: cell-based; settings: for effect on viability over the 4 h of the experiment: MHB, 37° C.; for effect on viability over the 4 h of the experiment / viable counts at 24 h: initial 0.5-1.0×10^7 CFU/ml
Protocol: An overnight 10 ml MHB culture of S. aureus NCTC 6571 was diluted to 0.5 McFarland in MHB then 1 ml was used to inoculate each of four 100 ml flasks prepared as follows: • 1) 9.0 ml MHB (control) • 2) 9.99 ml MHB plus 9.7 μl of TSB007 working stock at 2048 μg/ml (1.8 μg/ml) • 3) 9.98 ml MHB plus 19.5 μl of TSB007 working stock at 2048 μg/ml (3.6 μg/ml) • 4) […] MHB plus 256 μl of a TSB007 master stock (320 μg/ml).
The flasks were incubated at 37° C. for 10 min before inoculation. Samples (0.1 ml) were taken immediately after inoculation (time 0) and then at 15, 30, 60, 120 and 240 min. The samples were immediately diluted 10^−1 in 0.01 M phosphate buffered saline at pH 7.0 (PBS). Further 10-fold dilutions in PBS were made down to 10^−4 until the 60 min time point, and then down to 10^−6 for the remaining time points. Viable counts were estimated using 3×20 μl drops from each dilution on MHA which was then incubated at 37° C. overnight before counting. These were normalised against the initial counts from each flask. Testing was performed on three separated occasions.

[5] = tested on: Staphylococcus aureus (methicillin resistant) NCTC 10442; experiment: Disk diffusion; settings: for zone of inhibition at 10000 µg/mL: Staphylococcus aureus
sheep erythrocytes = experiment: Haemolysis of sheep erythrocytes; type: cell-based; settings: for Average (SD) % haemolysis (n = 2): 2% sheep erythrocytes, 37° C., 2 h
Protocol: As an indicator of toxicity to human cells, haemolysis experiments on sheep erythrocytes were undertaken with TSB007.
10 mg/ml stock solution of TSB007 was prepared in 100% DMSO. Master stock solutions of TSB007 (10 mg/ml) were made by dissolving 20 mg dehydrated compound in 2 ml 100% DMSO. They were stored in foil-covered glass bottles at −20° C. Master stocks stored in this way retained full antimicrobial activity for a minimum period of 6 weeks (results not shown).
Serial, 10-fold dilutions were performed in PBS to make solutions of 1000, 100, 10 and 1 mg/L of TSB007. In microcentrifuge tubes, 500 μl of each dilution was combined with 480 μl PBS and 20 μl washed sheep erythrocytes (100%) so that the final concentration of erythrocytes was 2% and the final concentrations of compound were 500, 50, 5 and 0.5 mg/L. Dilutions of DMSO without. TSB007 were prepared and tested as above to check for haemolysis due to DMSO. A 100% haemolysis control was prepared with 980 μl water and 20 μl erythrocyte suspension. A negative control was prepared with 980 μl PBS and 20 μl erythrocyte suspension. Dilutions and controls were prepared and tested in duplicate.
Tubes were incubated at 37° C. for 2 h on a rocker then centrifuged at 12 000 g for 5 mins. The OD540 of the supernatant was determined using 100 μl volumes transferred to a microtitre tray. % haemolysis was determined by blanking the OD against that of the negative control and presenting the resulting OD as a proportion of the OD of the positive control (blanked with water).

[6] = tested on: Escherichia coli NCTC 10538; experiment: Disk diffusion; settings: 10 mg/ml, 20 μl; repeat; value printed with '?'
[7] = tested on: Vibrio cholerae (non-toxigenic) M3695; experiment: Disk diffusion; type: cell-based; settings: 10 mg/ml, 20 μl, (other strain?)
[8] = tested on: Clostridium perfringens ATCC 2734; type: cell-based; settings: 10 mg/ml, 20 μl, BA - prereduced, anaerobe
[9] = tested on: Citrobacter freundii NCTC 9750/ATCC 8090; experiment: Disk diffusion; settings: 10 mg/ml, 20 μl; repeat
[10] = tested on: Micrococcus luteus ATCC 10240; experiment: Disk diffusion; settings: 10 mg/ml, 20 μl
[11] = tested on: Yersinia enterocolitica clinical 26609; experiment: Disk diffusion; settings: 10 mg/ml, 20 μl; repeat, strain clinical 26609

In the case of `O=C(O)c1ccc(/C=C/c2cc(/C=C/c3ccc(C(=O)O)cc3)cc(/C=C/c3ccc(C(=O)O)cc3)c2)cc1` [TSB007], the “Ames Test result” value ([1]; 100, 300 and 1000 μg/plate, TA98, TA100, TA1535, no metabolic activation) is reported as “negative”, the Number of colonies ([1]; TA98, 100 μg/plate, negative control 14, 12) is reported as 16 and 13 and the Number of colonies ([1]; TA98, 300 μg/plate, negative control 14, 12) is reported as 11. For the same molecule, the Number of colonies ([1]; TA98, 1000 μg/plate, negative control 14, 12) was 3 and 2, the Number of colonies ([1]; TA100, 100 μg/plate, negative control 113, 96) was 111 and 92 and the Number of colonies ([1]; TA100, 300 μg/plate, negative control 113, 96) was 110 and 105. The Number of colonies ([1]; TA100, 1000 μg/plate, negative control 113, 96) was 88 and 89, the Number of colonies ([1]; TA1535, 100 μg/plate, negative control 28, 29) was 17 and 29 and the Number of colonies ([1]; TA1535, 300 μg/plate, negative control 28, 29) was 16 and 24. The Number of colonies ([1]; TA1535, 1000 μg/plate, negative control 28, 29) was 0, the “Zone diameters, 24 h TSB007” value ([2]; 24 h) was 9 trim and the “Zone diameters, 48 h TSB007” value ([2]; 48 h) was 9 trim. The “Zone diameters, Repeat Results” value ([2]; repeat, value printed with '?') was 15? trim, the “Zone diameters, Repeat Results” value [3] was 9? trim and the “Zone diameters, 24 h TSB007” value ([4]; 24 h) was 8 trim. For the same molecule, the “Zone diameters, 48 h TSB007” value ([4]; 48 h) was 8 trim, the “effect on viability over the 4 h of the experiment” value (S. aureus NCTC 6571; 1.8 μg/ml) was “inhibitory” and the “viable counts at 24 h” value (S. aureus NCTC 6571; 1.8 μg/ml) was 10^8 CFU/ml. The “effect on viability over the 4 h of the experiment” value (S. aureus NCTC 6571; 3.6 μg/ml) was “inhibitory”, the “viable counts at 24 h” value (S. aureus NCTC 6571; 3.6 μg/ml) was 10^3-10^6 CFU/ml and the “viable cells at first time point” value (S. aureus NCTC 6571; 320 μg/ml (1.25×MBC), 15 min) was “below the limit of detection”. For the same molecule, the kill (S. aureus NCTC 6571; 320 μg/ml (1.25×MBC), first time point of 15 min) was > 99.9%, the “Zone diameters, 24 h TSB007” value ([5]; 10 mg/ml, 20 μl, 24 h) was 18 trim and the “Zone diameters, 48 h TSB007” value ([5]; 10 mg/ml, 20 μl, 48 h) was 9 trim. For the same molecule, the “Zone diameters, Repeat Results” value ([5]; 10 mg/ml, 20 μl, repeat) was 23 trim, the zone of inhibition at 10000 µg/mL ([5]; NCTC10442, 24 h, read-out: Zone diameters, 24 h AnO2) was 17 mm and the zone of inhibition at 10000 µg/mL ([5]; NCTC10442, 24 h, read-out: Zone diameters, 24 h O2) was 14 mm. For the same molecule, the zone of inhibition at 10000 µg/mL ([5]; NCTC10442, 48 h, read-out: Zone diameters, 48 h AnO2) was 17 mm, the zone of inhibition at 10000 µg/mL ([5]; NCTC10442, 48 h, read-out: Zone diameters, 48 h O2) was 11 mm and the “Average (SD) % haemolysis (n = 2)” value (sheep erythrocytes; 0.5 mg/L) was −2.316 (0.695) %. For the same molecule, the “Average (SD) % haemolysis (n = 2)” value (sheep erythrocytes; 5 mg/L) was 2.175 (0.099) %, the “Average (SD) % haemolysis (n = 2)” value (sheep erythrocytes; 50 mg/L) was 2.316 (0.099) % and the haemolytic activity (sheep erythrocytes; 0.5-500 mg/L) was “very low”. For the same molecule, the “Average (SD) % haemolysis (n = 2)” value (sheep erythrocytes; 500 mg/L) was 5.053 (0.595) %, the “Zone diameters, Repeat Results” value [6] was 7.5? trim and the “Zone diameters, Repeat Results” value [7] was 7 trim. For the same molecule, the “Zone diameters, 24 h TSB007” value ([8]; 24 h) was 12 trim, the “Zone diameters, 48 h TSB007” value ([8]; 48 h) was 12 trim and the “Zone diameters, Repeat Results” value [9] was 9 trim. For the same molecule, the “Zone diameters, 24 h TSB007” value ([10]; 24 h) was 26 trim, the “Zone diameters, 48 h TSB007” value ([10]; 48 h) was 26 trim and the “Zone diameters, Repeat Results” value ([10]; repeat) was 32 trim. The “Zone diameters, Repeat Results” value [11] was 8 trim.
